Experiment [1] has as its target T1, MDMX (Homo sapiens, UniProt O15151).
T1 sequence (O15151 1-125): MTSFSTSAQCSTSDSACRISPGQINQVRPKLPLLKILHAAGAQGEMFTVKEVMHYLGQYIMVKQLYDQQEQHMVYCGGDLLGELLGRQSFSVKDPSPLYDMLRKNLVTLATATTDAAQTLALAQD
Nature of the experiment: Competitive fluorescence polarization assay for MDMX. The class given is binding. The settings on record: competitive FP assay; for Ki: Ki (MDMX). On the technique in general: In fluorescence polarisation assays a small probe gives low polarisation when free and higher when bound to something large.
Description: Dilute MDMX (In-house, 40 kD) into FP buffer (High salt buffer-200 mM Nacl, 5 mM CHAPS, pH 7.5.) to make 300 nM (2×) working stock solution. • 2. […] Dilute 1 mM (in 100% DMSO) of FAM labeled linear peptide with DMSO to 100 μM (dilution 1:10). Then, dilute from 100 μM to 10 μM with water (dilution 1:10) and then dilute with FP buffer from 10 μM to 40 nM (dilution 1:250). This is the working solution which will be a 10 nM concentration in well (dilution 1:4). Keep the diluted FAM labeled peptide in the dark until use. • 4. […] Dilute 10 mM (in 100% DMSO) with DMSO to 5 mM (dilution 1:2). Then, dilute from 5 mM to 500 μM with H2O (dilution 1:10) and then dilute with FP buffer from 500 μM to 20 μM (dilution 1:25). […] Transfer 10 μl of serial diluted unlabeled peptides to each well which is filled with 20 μl of 300 nM of protein. • 7. Add 10 μl of 10 nM (4×) of FAM labeled peptide into each well and incubate for 3 hr to read.

Experiment [2] concerns the target MDM2 (Homo sapiens, UniProt Q00987). As to the kind of experiment: Competitive fluorescence polarization assay for MDM2. The class given is binding. The note with it: competitive FP assay, MDM2; for Ki: Ki (MDM2).

The results in this text go back to patent publication US8927500B2, “Peptidomimetic macrocycles” (Aileron Therapeutics, Inc., priority 2012, dated 2015).

Each structure is given as a SMILES string. Where a SMILES comes first, the peptide text is derived from it. Bridges are numbered along the chain shown (N, C = ends). [ ]: non-standard residue; d: D form. Phe(4-B(OH)2) = N[C@@H](Cc1ccc(B(O)O)cc1)C(=O)O; R8 = C=CCCCCCC[C@@](C)(N)C(=O)O; S5 = C=CCCC[C@](C)(N)C(=O)O

In general, IC50 refers to the concentration that gives 50% inhibition. Low values mean higher potency, high ones lower potency. The term Ki denotes the dissociation constant of the complex between target and ligand, obtained from inhibition or displacement. A low value points to a stronger hold on the target.

Sequence of MDM2 (Q00987 1-125): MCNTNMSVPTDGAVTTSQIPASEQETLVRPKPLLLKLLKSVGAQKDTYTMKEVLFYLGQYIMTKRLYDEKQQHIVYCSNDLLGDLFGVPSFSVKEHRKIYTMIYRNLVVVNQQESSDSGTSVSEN

As for `CC(=O)N[C@@H](CC(C)C)C(=O)N[C@H](C(=O)N[C@@H](Cc1ccccc1)C(=O)N[C@]1(C)CCCCCCCCCCC[C@@](C)(C(=O)N[C@@H](C)C(=O)N[C@@H](C)C(=O)N[C@@H](C)C(=O)N[C@@H](C)C(=O)N[C@@H](C)C(=O)N[C@H](C)C(N)=O)NC(=O)[C@H](CC(C)C)NC(=O)[C@H](CCC(N)=O)NC(=O)[C@H](C)NC(=O)[C@H](Cc2c[nH]c3ccccc23)NC(=O)[C@H](Cc2ccc(O)cc2)NC(=O)[C@H](CCC(=O)O)NC1=O)[C@@H](C)O` [compound 445], the IC50 in experiment [1] (IC50 (MDMX)) was in the range of 100 to 1000 nM; in experiment [2] (IC50 (MDM2)) it was 10 to 100 nM. Moreover, the Ki was 10 to 100 nM in experiment [1] and < 10 nM in experiment [2].

Turning to `CC(=O)N[C@@H](CC(C)C)C(=O)N[C@H](C(=O)N[C@@H](Cc1ccccc1)C(=O)N[C@]1(C)CCCCCCC=CCCC[C@@](C)(C(=O)N[C@@H](C)C(=O)N[C@@H](C)C(=O)N[C@@H](C)C(=O)N[C@@H](C)C(=O)N[C@@H](C)C(=O)N[C@H](C)C(N)=O)NC(=O)[C@H](CC(C)C)NC(=O)[C@H](CCC(N)=O)NC(=O)[C@H](C)NC(=O)[C@H](Cc2c[nH]c3ccccc23)NC(=O)[C@H](Cc2ccc(B(O)O)cc2)NC(=O)[C@H](CCC(=O)O)NC1=O)[C@@H](C)O` [compound 556] (Ac-LTF[R8]E[Phe(4-B(OH)2)]WAQL[S5]AAAAA[dA]-NH2; staple 4-11), the inhibition constant Ki is 10 to 100 nM in experiment [1] and < 10 nM in experiment [2].

As to `CC(=O)N[C@@H](C)C(=O)N[C@@H](C)C(=O)N[C@@H](C)C(=O)N[C@@H](CC(C)C)C(=O)N[C@H](C(=O)N[C@@H](Cc1ccccc1)C(=O)N[C@]1(C)CCCCCC/C=C/CCC[C@@](C)(C(=O)N[C@@H](C)C(=O)N[C@@H](C)C(=O)N[C@@H](C)C(=O)N[C@@H](C)C(=O)N[C@@H](C)C(=O)N[C@H](C)C(N)=O)NC(=O)[C@H](CC(C)C)NC(=O)[C@H](CCC(N)=O)NC(=O)[C@H](C)NC(=O)[C@H](Cc2c[nH]c3ccccc23)NC(=O)[C@H](Cc2ccc(O)cc2)NC(=O)[C@H](CCC(=O)O)NC1=O)[C@@H](C)O` [compound 557] (Ac-AAALTF[R8]EYWAQL[S5]AAAAA[dA]-NH2; staple (E) 7-14), the Ki in experiment [1] and in experiment [2] was 10 to 100 nM each time.

As to `CC(=O)N[C@@H](CCCNC(=N)N)C(=O)N[C@H](C(=O)N[C@@H](Cc1ccccc1)C(=O)N[C@]1(C)CCCCCCC=CCCC[C@@](C)(C(=O)N[C@@H](C)C(=O)N[C@@H](C)C(=O)N[C@@H](C)C(=O)N[C@@H](C)C(=O)N[C@@H](C)C(=O)N[C@H](C)C(N)=O)NC(=O)[C@H](CC(C)C)NC(=O)[C@H](CCC(N)=O)NC(=O)[C@H](C)NC(=O)[C@H](Cc2c[nH]c3ccccc23)NC(=O)[C@H](Cc2ccc(O)cc2)NC(=O)[C@H](CCC(=O)O)NC1=O)[C@@H](C)O` [compound 559] (Ac-RTF[R8]EYWAQL[S5]AAAAA[dA]-NH2; staple 4-11), the inhibition constant (Ki) in experiment [1] and in experiment [2] was 10 to 100 nM each time.

Regarding `CC(=O)N[C@@H](CC(C)C)C(=O)N[C@H](C(=O)N[C@@H](C)C(=O)N[C@]1(C)CCCCCCC=CCCC[C@@](C)(C(=O)N[C@@H](C)C(=O)N[C@@H](C)C(=O)N[C@@H](C)C(=O)N[C@@H](C)C(=O)N[C@@H](C)C(=O)N[C@H](C)C(N)=O)NC(=O)[C@H](CC(C)C)NC(=O)[C@H](CCC(N)=O)NC(=O)[C@H](C)NC(=O)[C@H](Cc2c[nH]c3ccccc23)NC(=O)[C@H](Cc2ccc(O)cc2)NC(=O)[C@H](CCC(=O)O)NC1=O)[C@@H](C)O` [compound 560] (Ac-LTA[R8]EYWAQL[S5]AAAAA[dA]-NH2; staple 4-11), the Ki in experiment [1] and in experiment [2] was > 1000 nM throughout.
